Experimental data as given in patent US20040228948A1, “Increasing the concentration of conjugated linoleic acid isomers in the milk fat and/or tissue fat of ruminants” (priority 2003, published 2004).

How the values were obtained:
[1] = system: mouse DMBA model; details: synthetically prepared mixture of the CLA isomers; cited from earlier work
[2] = system: DMBA-induced mammary tumors in rats; details: 0.05 g CLA/100 g of diet; cited from earlier work
[3] = system: lactating Holstein cows; assay: Example 2 feeding trial: milk fatty acid composition; assay type: in vivo; details: FIGS. 4 and 5, monensin with safflower oil
Excerpt: Twenty-eight primiparous and 34 multiparous lactating Holstein cows were used in a randomized complete block design with repeated measures. Animals were blocked according to parity and DIM. Cows within each block were then randomly assigned to one of six treatment diets: (1) Control diet (CTL); (2) Control diet including safflower oil supplemented at 6% of DM (SAFF); (3) Control diet including safflower oil supplemented at 6% of DM plus Vitamin E supplemented at 150 IU/kg DM (SAFF/E); (4) Control diet including safflower oil supplemented at 6% of DM plus monensin supplemented at 24 ppm of DM (SAFF/M); (5) Control diet including safflower oil supplemented at 6% of DM plus Vitamin E supplemented at 150 IU/kg DM plus monensin supplemented at 24 ppm of DM (SAFF/M/E); (6) Control diet including flaxseed oil supplemented at 6% of DM plus Vitamin E supplemented at 150 IU/kg DM (FLAX/E). […] Feed intake was recorded daily and adjusted to maintain 5 to 10% orts. […] Milk yield was recorded daily. […] A portion of milk from each cow was preserved with potassium dichromate and analyzed for protein, fat, lactose, and somatic cell count at the Alberta Agriculture, Food and Rural Development Central Milk Testing Laboratory (Edmonton, Alberta, Canada). […] The data were analyzed as a randomized complete block design with repeated measures using MIXED procedure of SAS version 8:3 (SAS Institute, Cary, N.C.).

[4] = system: dairy cows; details: 24 mg/kg of dietary dry matter, 28-day period; increase from 0.8%; cited from earlier work

Conjugated linoleic acid [CLA]
papillomas compared to the control mice [1]: about one-half
number of mammary tumors [2]: reduction

CC[C@@]1([C@@H]2O[C@@H]([C@H]3O[C@@](O)(CO)[C@H](C)C[C@@H]3C)C[C@@H]2C)CC[C@H]([C@]2(C)CC[C@]3(C[C@H](O)[C@@H](C)[C@@H]([C@@H](C)[C@@H](OC)[C@H](C)C(=O)O)O3)O2)O1 [monensin]
persistence of effect on CLA and trans 18:1 [3]: consistent across the two-month period
CLA in milk fat [4]: 1.3 % of milk fat
